The results in this text go back to patent publication US6730660B2, “Peritoneal dialysis solutions with polypeptides” (Baxter International Inc., priority 1992, dated 2004).

In this data set the test system is albino guinea pigs. Briefly: Dermal sensitization study: intradermal induction with Freund's Complete Adjuvant, then intradermal challenge. Format: in vivo, guinea pig.

Method: The study was conducted using 10 test animals and four naive control animals per test or positive control material. On Day 1, animals in each test group received duplicate 0.05-mL intradermal injections of a 1:1 ratio of Freund's Complete Adjuvant in sterile water, the respective test material, and a 1:1 ratio of the respective test material in Freund's Complete Adjuvant.
For the positive control group, the animals received duplicate 0.05-mL intradermal injections of a 1:1 ratio of Freund's Complete Adjuvant in sterile water, a 5% w/v suspension of sulfathiazole in sterile water, and a 5% w/v suspension of sulfathiazole in Freund's Complete Adjuvant.
On day 7, animals in all three test groups and the positive control group were pretreated with 10% w/w sodium lauryl sulfate in petrolatum applied topically at the shaved area of the Day 1 intradermal injections. On Day 8, the respective test or positive control material was injected intradermally at a volume of 0.05 mL into two separate areas located just posterior to the initial intradermal injections.
All the test materials were administered undiluted and the positive control was administered as a 5% w/v suspension of sulfathiazole in sterile water. All naive control animals were not treated during the induction phase.
Two weeks following the Day 8 intradermal injections, all animals in the respective test and naive control groups received a challenge intradermal injection. The respective undiluted test material was injected intradermally at a volume of 0.05-mL into one site on the shaved right flank of each respective animal. The positive control animals were treated with a 1% w/v suspension of sulfathiazole in sterile 0.9% saline. The sites were examined for erythema and edema at 24, 48, and 72 hours following injection.
Young adult albino guinea pigs, Hra:(DH)SPF, were procured, maintained individually in screen-bottom stainless steel cages in temperature- and humidity-controlled rooms, provided continuous access to Certified Guinea Pig Chow® 5026, Purina Mills, Inc., and water and held for an acclimation period of at least 7 days. If variations from the prescribed environmental conditions existed, they were documented and considered to have no effect on the study outcome. No contaminants were expected to have been present in the feed or water which would have interfered with or affected the results of the study.
Intradermal Injections (Day 1) A 4-cm×6-cm area was clipped along the midline over the shoulder region of each animal in the test and positive control groups. Six intradermal injections were made within the boundaries of a 2-cm×4-cm area, one row of three injections on each side of the midline as follows: […]

Take `Nc1ccc(S(=O)(=O)Nc2nccs2)cc1` [Sulfathiazole]: the “dermal reactions at challenge” value (Day 22 intradermal challenge 0.05 mL, examined at 24, 48 and 72 hours) is “Dermal sensitization responses were observed”. In addition, where the note is “animal E17221, Group 11, third week of the study”, the “body weight loss of one animal” value turned out to be 76 g. For the same compound, the “Classification (sensitizer)” value (guinea pig, after intradermal challenge) was “Sensitizer”. For the same compound, under “test or positive control groups, after intradermal challenge”, the “# of Positive Reactions/# in Group” value is on record as 9/10.
